One test concerns PGE2 in vaginal lavage. Nature of the test: Mouse model of LPV: PGE2 content in vaginal lavage. Conditions: C57BL/6 mice with established Zymosan-induced allodynia, topical daily 1 μg/mouse/day for 4 weeks, FIG. 8. In kind it is in vivo, C57BL/6 mouse. An excerpt:
FIG. 8 is a diagram showing that PGE2 in vaginal lavage is associated with pain threshold. After induction of allodynia for up to 6 weeks (indicated by reduced pain threshold, red line), Maresin 1 was applied to C57BL/6 mouse vulvas to reduce pain and increase pain threshold. PGE2 content in vaginal lavage samples (blue line) […], indicating pain-associated inflammation waning with treatment. SEM shown, n=8.
Using this approach, inventors confirmed that one could induce vulvar allodynia, measure pain responses via mechanical threshold determination, and assess treatment responses. However, inventors implemented several modifications to improve the robustness of the model including the following: 1) use a genetically tractable inbred strain; 2) validation of the use of an electronic von Frey (EvF) system; 3) assessment of the impact of behavioral conditioning on pain response; 4) weekly collection of vulvovaginal lavages for pro-inflammatory mediator quantification; and 5) testing the ability of a selected compound of Formula (I) (e.g., Maresin 1) to modulate pain and inflammation in our new model. […]

The test system of test [1] is prostaglandin E2 (PGE2) production by human vulvar fibroblasts. Nature of the test: In vitro LPV model: PGE2 production by patient vestibular or vulvar fibroblasts. It is filed as cell-based. The following applies: for PGE2 levels: post-treatment regimen: IL-1β 30 min first, then 5 nM for 18 hours plus booster dose for 6 hr, already activated cells, FIG. 4C; for PGE2 production: pre-treatment regimen, 5 nM, activated with IL-1β (10 pg/ml) 48 hr, vestibular and external vulvar fibroblasts, FIG. 4A. How it is done: (§1) FIGS. 4A, 4B, 4C, and 4D are a set of diagrams showing that PGE2 and IL-6 production is reduced by compounds of Formula (I). Patient vestibular or vulvar fibroblasts were pre-treated for 10 hours with Maresin land epi-Maresin 1 at a 5 nM concentration, then activated with IL-1β (Panel A; 10 pg/ml) or bradykinin (Panel B; 100 nM) for 48 hr. Culture media were collected and analyzed for PGE2 (Panel A) or IL-6 (Panel B) content. Patient fibroblasts were also activated first with IL-1β for 30 min then treated with 5 nM Maresin 1 for 18 hours, followed by a booster dose for 6 hr. Culture media were collected and analyzed for PGE2 (Panel C) or IL-6 (Panel D) content. Mean+/−SEM of n=3, ANOVA *p<0.05 vs. activation only (no compounds of Formula (I) (F (I))).
(§2) In this example, a fibroblast-based in vitro LPV model was established. Briefly, fibroblast strains were obtained from two regions (FIG. 1) of the lower genital tract of localized provoked vulvodynia (LPV) cases and pain-free controls in the manner described in Falsetta et al. Am J Obstet Gynecol 2015, vol. 213, pp. 38 e1-12 and Foster et al., Pain 2015, vol. 156, pp. 386-96.
(§3) Over 30 paired fibroblast strains obtained from LPV-afflicted cases (fulfilling Friedrich's Criteria)^25 and age/race-matched (critical variables influencing LPV),^26, 27 pain-free controls were obtained. All subjects who contributed to the library were premenopausal, denied oral corticosteroids, non-steroidal, immunomodulatory, or anti-inflammatory medication use, and reported an absence of systemic/cutaneous inflammatory conditions at the time of sample collection. Mechanical pain thresholds were determined (via a method of limits) (0.5-5 N) using a Wagner algometer. Fibroblast identity was confirmed by microscopy and fibroblast markers (vimentin, collagen); only low passage (˜4) cells are used.
(§4) In this example, assays were carried out to investigate the ability of compounds of Formula (I) to reduce pro-inflammatory and pro-pain mediator production from primary human cells in the in vitro LPV model described in Example 1.
(§5) The inventors used one of two treatment regimens proven effective in vulvar fibroblasts and other cells at low/nanomolar concentrations (1-100 nM): 1) overnight pre-treatment, followed by another treatment 30 min prior to stimulation with pro-inflammatory stimuli for 48 hr with a third dose of a compound of Formula (I) at 24 hr post-challenge, or 2) post-treatment a compound of Formula (I) after a 30 min pre-treatment with inflammatory stimuli, followed by a booster dose 18 hr later. Both treatment regimens are of interest, as compounds of Formula (I) are active throughout the inflammatory process.^5-7 Even the compound of Formula (I) administered after LPV onset are likely to prevent the worsening or spread of LPV pain.

The subject of test [2] is PGE2 production from mouse vulvar tissue. Kind of test: Mouse vulvar explants (4 mm punch biopsy) stimulated with IL-1β: PGE2 production. In kind it is cell-based. The following applies: FIG. 5. The method, then: FIG. 5 is a diagram showing that compounds of Formula (I) (F (I)) inhibit PGE2 production from mouse vulvar tissue. Mouse vulvar tissue (4 mm punch biopsies) was collected and bisected then pre-treated in culture medium with either Maresin 1 at indicated concentrations for 18 hours, followed by an additional 18 hours stimulation with IL-1β (10 pg/ml). Culture medium was collected and analyzed for PGE2 content. Mean+/−SEM; n=3 replicate cultures. ANOVA * p<0.05 vs. vehicle.
Inventors first confirmed that mouse vulvar tissues responded to compounds of Formula (I) treatment in vitro by culturing mouse vulvar explants (4 mm punch biopsy). The explants were stimulated with IL-1β, and then assays were carried to assess the ability of Maresin 1 to reduce PGE2 production under the established pre-treatment regimen.
It was also determined that these mice expressed several SPM receptors (e.g., ALX, GPR18). Therefore, inventors proceeded with testing responses to compounds of Formula (I) in the mouse model.

The subject of test [3] is vulvar allodynia (pain threshold). Nature of the test: Mouse model of LPV: Zymosan-induced vulvar allodynia, pain threshold by electronic von Frey. It is filed as in vivo, C57BL/6 mouse. The following applies: C57BL/6 mice with established Zymosan-induced allodynia, topical daily 1 μg/mouse/day for 4 weeks. An excerpt:
FIGS. 6A, 6B and 6C are a set of photographs and diagrams showing pain testing for in vivo mouse vulvodynia model. Panel A: After Zymosan injection, inflammation and redness become apparent. Arrow indicates injection site. Panel B: Image showing how an electronic von Frey hair (Mousemet) is used to apply force to the mouse vulva. Panel C: Schematic of in vivo mouse model to establish then resolve vulvar allodynia. FIG. 7 is a diagram showing representative pain profile for a C57BL/6 mouse. […] In the mouse model, Zymosan (a pro-inflammatory yeast cell wall preparation) was used to induce sustained vulvar allodynia, measured by pain threshold testing. Inventors initially used a manual von Frey system (MvF)^24, but later switched to an electronic system as detailed herein. […] However, inventors implemented several modifications to improve the robustness of the model including the following: 1) use a genetically tractable inbred strain; 2) validation of the use of an electronic von Frey (EvF) system; 3) assessment of the impact of behavioral conditioning on pain response; 4) weekly collection of vulvovaginal lavages for pro-inflammatory mediator quantification; and 5) testing the ability of a selected compound of Formula (I) (e.g., Maresin 1) to modulate pain and inflammation in our new model. […]

The subject of test [4] is interleukin-6 (IL-6) production by human vulvar fibroblasts. Kind of test: In vitro LPV model: IL-6 production by patient vestibular or vulvar fibroblasts. In kind it is cell-based. Conditions: for IL-6 levels: post-treatment regimen: IL-1β 30 min first, then 5 nM for 18 hours plus booster dose for 6 hr, already activated cells, FIG. 4D; for IL-6 production: pre-treatment regimen, 5 nM, activated with bradykinin (100 nM) 48 hr, vestibular and external vulvar fibroblasts, FIG. 4B. The method, then: as §1, §2, §3, §4, §5

Structures are written as SMILES. Entries after “also recorded” stand apart in the source; their conditions may differ.

Regarding `CC/C=C\C/C=C\C[C@H](O)\C=C/C=C/C=C/[C@H](O)C/C=C\CCC(=O)O` [Maresin 1, 7R,14S-dihydroxy-docosa-4Z,8E,10E,12Z,16Z,19Z-hexaenoic acid], the “PGE2 levels in vulvovaginal lavage” value in the test on PGE2 in vaginal lavage is “suppressed and maintained at levels below baseline”; in the test on PGE2 in vaginal lavage (listed as Maresin-1), “suppressing PGE2 levels”. Further, the PGE2 levels entry was “significantly reduced” in test [1] and “highly effective in reducing” in test [1] (listed as Maresin-1). For the same molecule, the PGE2 production entry in test [1] is recorded as “significantly reduced”. Moreover, in test [2] (pre-treated 18 hours, then 18 hours IL-1β (10 pg/ml)), the “PGE2 responses following IL-1β treatment” value is listed as “significantly suppressed”. In addition, the “lowest dose with significant suppression of PGE2 response” value in test [2] (pre-treatment regimen, IL-1β (10 pg/ml)) is 1 nM. Also, the pain threshold result in test [3] (FIG. 7, 8) was “complete restoration to the pre-induction thresholds; also recorded: values returned to baseline”; in test [3] (FIG. 7, 8, listed as Maresin-1), “increased pain thresholds”. Further, the figures for the IL-6 levels entry in test [4] and in test [4] (listed as Maresin-1) were “significantly reduced” and “highly effective in reducing”, respectively. In test [4], the IL-6 production entry is listed as “significantly reduced”.

`CC/C=C\C/C=C\C[C@H](O)\C=C/C=C/C=C/[C@@H](O)C/C=C\CCC(=O)O` [epi-Maresin 1, 7S,14S-dihydroxy-docosa-4Z,8E,10E,12Z,16Z,19Z-hexaenoic acid]: the PGE2 production entry in test [1] is “significantly reduced”. Moreover, in test [4], the IL-6 production entry was “significantly reduced”.

Values taken from patent US11400057B2, “Treatment of vulvar pain” (University of Rochester, priority 2018, dated 2022).
